Source: patent US20070128217A1 (priority 2003, published 2007)

How the values were obtained:
[1] = test system: control sera (pooled serum of ten healthy LUMC hospital workers; commercial negative donor pooled serum from the Dutch bloodbank); type: binding, human; parameters: Binding of Control serum LUMC to linear peptides / Binding of Control serum Blood-bank to linear peptides / Binding of Control serum LUMC to looped peptides / Binding of Control Serum Blood-Bank to Looped peptides / Binding of Control serum LUMC to linear peptides of the protein M of SARS-CoV Urbani / Binding of Control serum Blood-bank to linear peptides of the protein M of SARS-CoV Urbani / Binding of Control serum LUMC to looped peptides of the protein M of SARS-CoV Urbani / Binding of Control Serum Blood-Bank to Looped peptides of the protein M of SARS-CoV Urbani: unit not given here
[2] = test system: antibodies in sera from SARS patients (sera 1a, 1b, 2, 6, 37, 62, London, SARS-yellow, SARS-green); type: binding, human; parameters: Binding of serum 6 to linear peptides of protein X1 of SARS-CoV Urbani / Binding of serum 37 to linear peptides of protein X1 of SARS-CoV Urbani / Binding of serum 6 to looped/cyclic peptide (PEPSCAN-ELISA) / Binding of serum 37 to looped/cyclic peptide (PEPSCAN-ELISA) / Binding of serum 37 to looped/cyclic peptides of protein X1 of SARS-CoV Urbani / Binding of serum 6 to linear peptides of protein X2 / Binding of serum 37 to linear peptides of protein X2 / Binding of serum 37 to looped/cyclic peptides of protein X2 of SARS-CoV Urbani / Binding of serum 6 to linear peptides of protein M of SARS-CoV Urbani / Binding of serum 37 to linear peptides of protein M of SARS-CoV Urbani / Binding of serum 6 to looped/cyclic peptides of protein M of SARS-CoV Urbani / Binding of serum 37 to looped/cyclic peptides of protein M of SARS-CoV Urbani / Binding of serum 6 to linear peptides of protein X3 of SARS-CoV Urbani / Binding of serum 37 to linear peptides of protein X3 of SARS-CoV Urbani / Binding of serum 37 to looped/cyclic peptides of protein X3 of SARS-CoV Urbani / Binding of serum 6 to linear peptides of protein X4 of SARS-CoV Urbani / Binding of serum 37 to linear peptides of protein X4 of SARS-CoV Urbani / Binding of serum 37 to looped/cyclic peptides of protein X4 of SARS-CoV Urbani / Binding of serum 6 to linear peptides of protein X5 of SARS-CoV Urbani / Binding of serum 37 to linear peptides of protein X5 of SARS-CoV Urbani / Binding of serum 37 to looped/cyclic peptides of protein X5 of SARS-CoV Urbani / Binding of serum 6 to linear peptides of protein N of SARS-CoV Urbani / Binding of serum 37 to linear peptides of protein N of SARS-CoV Urbani / Binding of serum 6 to linear peptide (PEPSCAN-ELISA) / Binding of serum 1a to looped/cyclic peptides of protein N of SARS-CoV Urbani / Binding of serum 1b to looped/cyclic peptides of protein N of SARS-CoV Urbani / Binding of serum 2 to looped/cyclic peptides of protein N of SARS-CoV Urbani / Binding of serum 6 to looped/cyclic peptides of protein N of SARS-CoV Urbani / Binding of serum 37 to looped/cyclic peptides of protein N of SARS-CoV Urbani / Binding of serum 62 to looped/cyclic peptides of protein N of SARS-CoV Urbani / Binding of serum London to looped/cyclic peptides of protein N of SARS-CoV Urbani / Binding of serum SARS-green to looped/cyclic peptides of protein N of SARS-CoV Urbani: unit not given here

## FICNLLLLFVTTYSH
[1]
  Binding of Control Serum Blood-Bank to Looped peptides: 0.5
  Binding of Control serum Blood-bank to linear peptides: 0.6
  Binding of Control serum LUMC to linear peptides: 0.5
  Binding of Control serum LUMC to looped peptides: 0.5

## GHPLGRCDIKDLPKE
[1]
  Binding of Control Serum Blood-Bank to Looped peptides of the protein M of SARS-CoV Urbani: 0.7
  Binding of Control serum Blood-bank to linear peptides of the protein M of SARS-CoV Urbani: 0.6
  Binding of Control serum LUMC to linear peptides of the protein M of SARS-CoV Urbani: 0.6
  Binding of Control serum LUMC to looped peptides of the protein M of SARS-CoV Urbani: 0.7

## IAMACIVGLMWLSYF
[2]
  Binding of serum 1a to linear peptides of protein M of SARS-CoV Urbani: 0.6
  Binding of serum 1a to looped/cyclic peptides of protein M of SARS-CoV Urbani: 0.6
  Binding of serum 1b to linear peptides of protein M of SARS-CoV Urbani: 0.5
  Binding of serum 1b to looped/cyclic peptides of protein M of SARS-CoV Urbani: 0.4
  Binding of serum 2 to linear peptides of protein M of SARS-CoV Urbani: 0.4
  Binding of serum 2 to looped/cyclic peptides of protein M of SARS-CoV Urbani: 0.4
  Binding of serum 6 to linear peptides of protein M of SARS-CoV Urbani: 0.3
  Binding of serum 6 to looped/cyclic peptides of protein M of SARS-CoV Urbani: 0.7
  Binding of serum 37 to linear peptides of protein M of SARS-CoV Urbani: 0.3
  Binding of serum 37 to looped/cyclic peptides of protein M of SARS-CoV Urbani: 0.4
  Binding of serum 62 to linear peptides of protein M of SARS-CoV Urbani: 0.3
  Binding of serum 62 to looped/cyclic peptides of protein M of SARS-CoV Urbani: 0.4
  Binding of serum London to linear peptides of protein M of SARS-CoV Urbani: 0.3
  Binding of serum London to looped/cyclic peptides of protein M of SARS-CoV Urbani: 0.2
  Binding of serum SARS-green to linear peptides of protein M of SARS-CoV Urbani: 0.3
  Binding of serum SARS-green to looped/cyclic peptides of protein M of SARS-CoV Urbani: 0.3
  Binding of serum SARS-yellow to linear peptides of protein M of SARS-CoV Urbani: 0.2
  Binding of serum SARS-yellow to looped/cyclic peptides of protein M of SARS-CoV Urbani: 0.6
[1]
  Binding of Control Serum Blood-Bank to Looped peptides of the protein M of SARS-CoV Urbani: 0.6
  Binding of Control serum Blood-bank to linear peptides of the protein M of SARS-CoV Urbani: 0.5
  Binding of Control serum LUMC to linear peptides of the protein M of SARS-CoV Urbani: 0.6
  Binding of Control serum LUMC to looped peptides of the protein M of SARS-CoV Urbani: 0.7

## IGVAFLAVPQSATKI
[1]
  Binding of Control Serum Blood-Bank to Looped peptides: 0.5
  Binding of Control serum Blood-bank to linear peptides: 0.8
  Binding of Control serum LUMC to linear peptides: 0.8
  Binding of Control serum LUMC to looped peptides: 0.5

## IMRCWLCWKCKSKNP
[2]
  Binding of serum 1a to looped/cyclic peptide (PEPSCAN-ELISA): 0.3
  Binding of serum 1b to looped/cyclic peptide (PEPSCAN-ELISA): 0.1
  Binding of serum 2 to looped/cyclic peptide (PEPSCAN-ELISA): 0.1
  Binding of serum 6 to looped/cyclic peptide (PEPSCAN-ELISA): 0.2
  Binding of serum 37 to looped/cyclic peptide (PEPSCAN-ELISA): 0.3
  Binding of serum 62 to looped/cyclic peptide (PEPSCAN-ELISA): 0.3
  Binding of serum London to looped/cyclic peptide (PEPSCAN-ELISA): 0.1
  Binding of serum SARS-green to looped/cyclic peptide (PEPSCAN-ELISA): 0.1
  Binding of serum SARS-yellow to looped/cyclic peptide (PEPSCAN-ELISA): 0.0
  Recognition of the peptide by sera of SARS-CoV infected individuals, and form (linear, looped/cyclic) in which it is recognized: recognized in linear form
[1]
  Binding of Control Serum Blood-Bank to Looped peptides: 0.4
  Binding of Control serum Blood-bank to linear peptides: 0.5
  Binding of Control serum LUMC to linear peptides: 0.5
  Binding of Control serum LUMC to looped peptides: 0.2

## MVQTGTPNVTINCQD
[1]
  Binding of Control Serum Blood-Bank to Looped peptides: 0.3
  Binding of Control serum Blood-bank to linear peptides: 0.8
  Binding of Control serum LUMC to linear peptides: 0.6
  Binding of Control serum LUMC to looped peptides: 0.3

## RCWLGWKCKSKNPLL
[1]
  Binding of Control Serum Blood-Bank to Looped peptides: 0.7
  Binding of Control serum Blood-bank to linear peptides: 1.2
  Binding of Control serum LUMC to linear peptides: 1.0
  Binding of Control serum LUMC to looped peptides: 0.7

## SLTSLLKTHRMCKYT
[2]
  Binding of serum 1a to linear peptides of protein X2: 0.8
  Binding of serum 1a to looped/cyclic peptides of protein X2 of SARS-CoV Urbani: 0.3
  Binding of serum 1b to linear peptides of protein X2: 0.4
  Binding of serum 1b to looped/cyclic peptides of protein X2 of SARS-CoV Urbani: 0.3
  Binding of serum 2 to linear peptides of protein X2: 0.4
  Binding of serum 2 to looped/cyclic peptides of protein X2 of SARS-CoV Urbani: 0.1
  Binding of serum 6 to linear peptides of protein X2: 0.4
  Binding of serum 6 to looped/cyclic peptides of protein X2 of SARS-CoV Urbani: 0.2
  Binding of serum 37 to linear peptides of protein X2: 0.3
  Binding of serum 37 to looped/cyclic peptides of protein X2 of SARS-CoV Urbani: 0.2
  Binding of serum 62 to linear peptides of protein X2: 0.7
  Binding of serum 62 to looped/cyclic peptides of protein X2 of SARS-CoV Urbani: 0.4
  Binding of serum London to linear peptides of protein X2: 0.4
  Binding of serum London to looped/cyclic peptides of protein X2 of SARS-CoV Urbani: 0.2
  Binding of serum SARS-green to linear peptides of protein X2: 0.5
  Binding of serum SARS-green to looped/cyclic peptides of protein X2 of SARS-CoV Urbani: 0.2
  Binding of serum SARS-yellow to linear peptides of protein X2: 0.3
  Binding of serum SARS-yellow to looped/cyclic peptides of protein X2 of SARS-CoV Urbani: 0.3

## TGTLIVNSVLLPLAF
[2]
  Binding of serum 1a to linear peptides of protein E of SARS-CoV Urbani: 0.7
  Binding of serum 1b to linear peptides of protein E of SARS-CoV Urbani: 0.5
  Binding of serum 2 to linear peptides of protein E of SARS-CoV Urbani: 0.3
  Binding of serum 6 to linear peptides of protein E of SARS-CoV Urbani: 0.6
  Binding of serum 37 to linear peptides of protein E of SARS-CoV Urbani: 0.7
  Binding of serum 62 to linear peptides of protein E of SARS-CoV Urbani: 0.6
  Binding of serum London to linear peptides of protein E of SARS-CoV Urbani: 0.4
  Binding of serum SARS-green to linear peptides of protein E of SARS-CoV Urbani: 0.4
  Binding of serum SARS-yellow to linear peptides of protein E of SARS-CoV Urbani: 0.2

## TTVYHTTVSQIQLSL
[1]
  Binding of Control Serum Blood-Bank to Looped peptides: 0.6
  Binding of Control serum Blood-bank to linear peptides: 0.6
  Binding of Control serum LUMC to linear peptides: 0.7
  Binding of Control serum LUMC to looped peptides: 0.5

## VQQELYSPLFLIVAA
[2]
  Binding of serum 1a to linear peptides of protein X4 of SARS-CoV Urbani: 0.7
  Binding of serum 1a to looped/cyclic peptides of protein X4 of SARS-CoV Urbani: 0.8
  Binding of serum 1b to linear peptides of protein X4 of SARS-CoV Urbani: 0.6
  Binding of serum 1b to looped/cyclic peptides of protein X4 of SARS-CoV Urbani: 0.5
  Binding of serum 2 to linear peptides of protein X4 of SARS-CoV Urbani: 0.6
  Binding of serum 2 to looped/cyclic peptides of protein X4 of SARS-CoV Urbani: 0.7
  Binding of serum 6 to linear peptides of protein X4 of SARS-CoV Urbani: 0.9
  Binding of serum 6 to looped/cyclic peptides of protein X4 of SARS-CoV Urbani: 0.5
  Binding of serum 37 to linear peptides of protein X4 of SARS-CoV Urbani: 0.7
  Binding of serum 37 to looped/cyclic peptides of protein X4 of SARS-CoV Urbani: 0.7
  Binding of serum 62 to linear peptides of protein X4 of SARS-CoV Urbani: 0.7
  Binding of serum 62 to looped/cyclic peptides of protein X4 of SARS-CoV Urbani: 0.7
  Binding of serum London to linear peptides of protein X4 of SARS-CoV Urbani: 0.9
  Binding of serum London to looped/cyclic peptides of protein X4 of SARS-CoV Urbani: 0.3
  Binding of serum SARS-green to linear peptides of protein X4 of SARS-CoV Urbani: 0.6
  Binding of serum SARS-green to looped/cyclic peptides of protein X4 of SARS-CoV Urbani: 0.4
  Binding of serum SARS-yellow to linear peptides of protein X4 of SARS-CoV Urbani: 0.5
  Binding of serum SARS-yellow to looped/cyclic peptides of protein X4 of SARS-CoV Urbani: 0.8
  Recognition of the peptide by sera of SARS-CoV infected individuals, and form (linear, looped/cyclic) in which it is recognized: recognized in looped/cyclic form
[1]
  Binding of Control Serum Blood-Bank to Looped peptides: 0.7
  Binding of Control serum Blood-bank to linear peptides: 0.6
  Binding of Control serum LUMC to linear peptides: 0.5
  Binding of Control serum LUMC to looped peptides: 0.6
